PubChem BioAssay AID1963832 (Molecular Pharmacology Branch, DTP, NCI, 2024)

Tested on: 885724-159-R-J1-PDC complex spheroid viability
Assay: Anticancer human tumor 885724-159-R-J1-PDC patient-derived pancreatic adenocarcinoma cell line growth inhibition [POLQ]
Settings: for IC50: curve of first compound; for viability, T/C: stronger effect = lower value
Summary of the method: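 Complex spheroid viability model combining PDC tumour cells with endothelial (HUVEC) and MSC stromal cells. Novobiocin, ART-558 or RP6685 were tested singly and in combination with standard and investigational anticancer drugs. Each was titrated in half-log steps from near clinical Cmax, or from 10 microM where Cmax was unknown.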

[1] = second compound 0.0316 µM, first compound 0.0316 µM
[2] = second compound 0.0316 µM, first compound 0.1 µM
[3] = second compound 0.1 µM, first compound 0.0316 µM
[4] = second compound 0.1 µM, first compound 0.1 µM
[5] = second compound 0.316 µM, first compound 0.0316 µM
[6] = second compound 0.316 µM, first compound 0.1 µM
[7] = second compound 1 µM, first compound 0.0316 µM
[8] = second compound 1 µM, first compound 0.1 µM
[9] = second compound 3.16 µM, first compound 0.0316 µM
[10] = second compound 3.16 µM, first compound 0.1 µM
[11] = second compound 10 µM, first compound 0.0316 µM
[12] = second compound 10 µM, first compound 0.1 µM
[13] = second compound 0.0316 µM, first compound 0.316 µM
[14] = second compound 0.0316 µM, first compound 1 µM
[15] = second compound 0.0316 µM, first compound 3.16 µM
[16] = second compound 0.0316 µM, first compound 10 µM
[17] = second compound 0.1 µM, first compound 0.316 µM
[18] = second compound 0.1 µM, first compound 1 µM
[19] = second compound 0.1 µM, first compound 3.16 µM
[20] = second compound 0.1 µM, first compound 10 µM
[21] = second compound 0.316 µM, first compound 0.316 µM
[22] = second compound 0.316 µM, first compound 1 µM
[23] = second compound 0.316 µM, first compound 3.16 µM
[24] = second compound 0.316 µM, first compound 10 µM
[25] = second compound 1 µM, first compound 0.316 µM
[26] = second compound 1 µM, first compound 1 µM
[27] = second compound 1 µM, first compound 3.16 µM
[28] = second compound 1 µM, first compound 10 µM
[29] = second compound 3.16 µM, first compound 0.316 µM
[30] = second compound 3.16 µM, first compound 1 µM
[31] = second compound 3.16 µM, first compound 3.16 µM
[32] = second compound 3.16 µM, first compound 10 µM
[33] = second compound 10 µM, first compound 0.316 µM
[34] = second compound 10 µM, first compound 1 µM
[35] = second compound 10 µM, first compound 3.16 µM
[36] = second compound 10 µM, first compound 10 µM
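Note: spheroids exposed to compounds for 7 days.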

Q: `Cn1ncnc1[C@H]1c2n[nH]c(=O)c3cc(F)cc(c23)N[C@@H]1c1ccc(F)cc1` + COC1C(OC(N)=O)C(O)C(Oc2ccc3c(O)c(NC(=O)c4ccc(O)c(CC=C(C)C)c4)c(=O)oc3c2C)OC1(C)C was tested. Which IC50 (second compound 0.0316 µM) did it give?
A: > 0.1 µM

Q: And the IC50 (second compound 0.1 µM)?
A: > 0.1 µM

Q: And the IC50 (second compound 0.316 µM)?
A: > 0.1 µM

Q: What about the IC50 (second compound 1 µM) of the same compound?
A: > 0.1 µM

Q: What about the IC50 (second compound 3.16 µM) of the same compound?
A: > 0.1 µM

Q: What about the IC50 (second compound 10 µM) of the same compound?
A: > 0.1 µM

Q: And the viability, T/C (second compound 0.0316 µM, first compound 0.000316 µM)?
A: 91.2%

Q: And the viability, T/C (second compound 0.0316 µM, first compound 0.001 µM)?
A: 103%

Q: And the viability, T/C (second compound 0.0316 µM, first compound 0.00316 µM)?
A: 92.2%

Q: What about the viability, T/C (second compound 0.0316 µM, first compound 0.01 µM) of the same compound?
A: 94.9%

Q: What about the viability, T/C [1] of the same compound?
A: 87%

Q: What about the viability, T/C [2] of the same compound?
A: 72.1%

Q: What about the viability, T/C (second compound 0.1 µM, first compound 0.000316 µM) of the same compound?
A: 101%

Q: And the viability, T/C (second compound 0.1 µM, first compound 0.001 µM)?
A: 95.3%

Q: What about the viability, T/C (second compound 0.1 µM, first compound 0.00316 µM) of the same compound?
A: 94.5%

Q: And the viability, T/C (second compound 0.1 µM, first compound 0.01 µM)?
A: 93.6%

Q: What about the viability, T/C [3] of the same compound?
A: 89.8%

Q: And the viability, T/C [4]?
A: 82.8%

Q: And the viability, T/C (second compound 0.316 µM, first compound 0.000316 µM)?
A: 113%

Q: What about the viability, T/C (second compound 0.316 µM, first compound 0.001 µM) of the same compound?
A: 92%

Q: What about the viability, T/C (second compound 0.316 µM, first compound 0.00316 µM) of the same compound?
A: 95.6%

Q: And the viability, T/C (second compound 0.316 µM, first compound 0.01 µM)?
A: 95.4%

Q: And the viability, T/C [5]?
A: 89.4%

Q: What about the viability, T/C [6] of the same compound?
A: 78.7%

Q: What about the viability, T/C (second compound 1 µM, first compound 0.000316 µM) of the same compound?
A: 105%

Q: And the viability, T/C (second compound 1 µM, first compound 0.001 µM)?
A: 86.6%

Q: And the viability, T/C (second compound 1 µM, first compound 0.00316 µM)?
A: 95.7%

Q: And the viability, T/C (second compound 1 µM, first compound 0.01 µM)?
A: 85%

Q: And the viability, T/C [7]?
A: 83.6%

Q: What about the viability, T/C [8] of the same compound?
A: 77%

Q: And the viability, T/C (second compound 3.16 µM, first compound 0.000316 µM)?
A: 105%

Q: What about the viability, T/C (second compound 3.16 µM, first compound 0.001 µM) of the same compound?
A: 87.5%

Q: And the viability, T/C (second compound 3.16 µM, first compound 0.00316 µM)?
A: 90.2%

Q: What about the viability, T/C (second compound 3.16 µM, first compound 0.01 µM) of the same compound?
A: 98.5%

Q: And the viability, T/C [9]?
A: 93.7%

Q: And the viability, T/C [10]?
A: 75.7%

Q: What about the viability, T/C (second compound 10 µM, first compound 0.000316 µM) of the same compound?
A: 95.1%

Q: What about the viability, T/C (second compound 10 µM, first compound 0.001 µM) of the same compound?
A: 97.4%

Q: And the viability, T/C (second compound 10 µM, first compound 0.00316 µM)?
A: 85%

Q: And the viability, T/C (second compound 10 µM, first compound 0.01 µM)?
A: 90.5%

Q: And the viability, T/C [11]?
A: 88.4%

Q: And the viability, T/C [12]?
A: 75.3%

Q: `CNCc1ccc(-c2[nH]c3cc(F)cc4c3c2CCNC4=O)cc1` + Nc1ccc(C#CCN(C(=O)Cc2ncc(C(F)(F)F)cc2C(F)(F)F)c2ccc(F)cc2)nn1 was tested. Which IC50 (second compound 0.0316 µM) did it give?
A: > 10 µM

Q: What about the IC50 (second compound 0.1 µM) of the same compound?
A: > 10 µM

Q: What about the IC50 (second compound 0.316 µM) of the same compound?
A: > 10 µM

Q: And the IC50 (second compound 1 µM)?
A: > 10 µM

Q: What about the IC50 (second compound 3.16 µM) of the same compound?
A: > 10 µM

Q: And the IC50 (second compound 10 µM)?
A: > 10 µM

Q: And the viability, T/C [1]?
A: 89%

Q: And the viability, T/C [2]?
A: 93%

Q: And the viability, T/C [13]?
A: 87.5%

Q: What about the viability, T/C [14] of the same compound?
A: 91%

Q: What about the viability, T/C [15] of the same compound?
A: 92.3%

Q: And the viability, T/C [16]?
A: 91.1%

Q: And the viability, T/C [3]?
A: 101%

Q: And the viability, T/C [4]?
A: 88.3%

Q: What about the viability, T/C [17] of the same compound?
A: 92.5%

Q: What about the viability, T/C [18] of the same compound?
A: 94.2%

Q: And the viability, T/C [19]?
A: 89.9%

Q: And the viability, T/C [20]?
A: 85.6%

Q: What about the viability, T/C [5] of the same compound?
A: 95.5%

Q: What about the viability, T/C [6] of the same compound?
A: 81.1%

Q: And the viability, T/C [21]?
A: 85.9%

Q: What about the viability, T/C [22] of the same compound?
A: 89.8%

Q: What about the viability, T/C [23] of the same compound?
A: 96.5%

Q: What about the viability, T/C [24] of the same compound?
A: 92.7%

Q: What about the viability, T/C [7] of the same compound?
A: 88.7%

Q: And the viability, T/C [8]?
A: 101%

Q: What about the viability, T/C [25] of the same compound?
A: 89.7%

Q: What about the viability, T/C [26] of the same compound?
A: 85.7%

Q: And the viability, T/C [27]?
A: 88.7%

Q: What about the viability, T/C [28] of the same compound?
A: 83.4%

Q: And the viability, T/C [9]?
A: 100%

Q: And the viability, T/C [10]?
A: 96.8%

Q: And the viability, T/C [29]?
A: 96.6%

Q: What about the viability, T/C [30] of the same compound?
A: 88.6%

Q: And the viability, T/C [31]?
A: 98.3%

Q: And the viability, T/C [32]?
A: 81.9%

Q: And the viability, T/C [11]?
A: 92%

Q: What about the viability, T/C [12] of the same compound?
A: 92.2%

Q: And the viability, T/C [33]?
A: 98.8%

Q: And the viability, T/C [34]?
A: 91.5%

Q: And the viability, T/C [35]?
A: 92.2%

Q: And the viability, T/C [36]?
A: 91.7%

Q: Which results are given for `CC(C)n1c(=O)n(C)c2cnc3cc(F)c(-c4ccc(OCCCN5CCCCC5)nc4)cc3c21` + Cc1cccc(N(C)C(=O)C2C(O)CCN2c2nc(C)cc(C(F)(F)F)c2C#N)c1?
A: IC50 (second compound 0.0316 µM): > 10 µM; IC50 (second compound 0.1 µM): > 10 µM; IC50 (second compound 0.316 µM): > 10 µM; IC50 (second compound 1 µM): > 10 µM; IC50 (second compound 3.16 µM): > 10 µM; IC50 (second compound 10 µM): > 10 µM; viability, T/C [1]: 104%; viability, T/C [2]: 104%; viability, T/C [13]: 99.9%; viability, T/C [14]: 97.8%; viability, T/C [15]: 93.9%; viability, T/C [16]: 68.8%; viability, T/C [3]: 108%; viability, T/C [4]: 95.8%; viability, T/C [17]: 109%; viability, T/C [18]: 91.2%; viability, T/C [19]: 96.8%; viability, T/C [20]: 72.2%; viability, T/C [5]: 109%; viability, T/C [6]: 102%; viability, T/C [21]: 102%; viability, T/C [22]: 98.8%; viability, T/C [23]: 99.3%; viability, T/C [24]: 66.6%; viability, T/C [7]: 104%; viability, T/C [8]: 100%; viability, T/C [25]: 104%; viability, T/C [26]: 116%; viability, T/C [27]: 87.7%; viability, T/C [28]: 60.2%; viability, T/C [9]: 106%; viability, T/C [10]: 112%; viability, T/C [29]: 107%; viability, T/C [30]: 102%; viability, T/C [31]: 86.2%; viability, T/C [32]: 61.3%; viability, T/C [11]: 106%; viability, T/C [12]: 95.4%; viability, T/C [33]: 111%; viability, T/C [34]: 101%; viability, T/C [35]: 88.9%; viability, T/C [36]: 60.7%

Q: What does the source list for `COc1ccc([C@@H](O)c2cc(-c3ncnc4cc(N5CCOCC5)ccc34)c(F)cc2Cl)nn1` + Cc1cccc(N(C)C(=O)C2C(O)CCN2c2nc(C)cc(C(F)(F)F)c2C#N)c1?
A: IC50 (second compound 0.0316 µM): 4.63 µM; IC50 (second compound 0.1 µM): 4.02 µM; IC50 (second compound 0.316 µM): 4.68 µM; IC50 (second compound 1 µM): 3.96 µM; IC50 (second compound 3.16 µM): 4.44 µM; IC50 (second compound 10 µM): 4.6 µM; viability, T/C [1]: 112%; viability, T/C [2]: 90.2%; viability, T/C [13]: 88.6%; viability, T/C [14]: 70.1%; viability, T/C [15]: 60.5%; viability, T/C [16]: 35.6%; viability, T/C [3]: 93.7%; viability, T/C [4]: 91.6%; viability, T/C [17]: 81.5%; viability, T/C [18]: 64.7%; viability, T/C [19]: 56.7%; viability, T/C [20]: 35.2%; viability, T/C [5]: 104%; viability, T/C [6]: 84.8%; viability, T/C [21]: 81.1%; viability, T/C [22]: 81.9%; viability, T/C [23]: 57.2%; viability, T/C [24]: 33.7%; viability, T/C [7]: 103%; viability, T/C [8]: 93.2%; viability, T/C [25]: 89%; viability, T/C [26]: 68%; viability, T/C [27]: 55.3%; viability, T/C [28]: 34.5%; viability, T/C [9]: 100%; viability, T/C [10]: 92.5%; viability, T/C [29]: 85.1%; viability, T/C [30]: 78.6%; viability, T/C [31]: 55.2%; viability, T/C [32]: 33.4%; viability, T/C [11]: 101%; viability, T/C [12]: 90.3%; viability, T/C [33]: 85.1%; viability, T/C [34]: 77%; viability, T/C [35]: 55.9%; viability, T/C [36]: 34.9%
